From PubChem BioAssay (NCI)
Values joined by “and” are separate entries in the source; they are usually repeats but may differ in a detail not shown here. Equal values may be shown once.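 Assay format: 96-well plates, 48-hour exposure. At the GI50, growth is halved. Definition used: TGI = concentration required for complete inhibition of growth.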

Experiments:
Experiment in all cases: NCI anticancer screen, dose series, 48 h
[1] = system: U251 CNS
[2] = system: UO-31 renal
[3] = system: PC-3 prostate
[4] = system: HCT-15 colon
[5] = system: HCC-2998 colon
[6] = system: K-562 leukemia
[7] = system: LOX IMVI melanoma
[8] = system: NCI-H460 lung

Structure (SMILES)	GI50 [1]	GI50 [2]	TGI [2]	GI50 [3]	TGI [3]	GI50 [4]	TGI [4]	TGI [1]	TGI [5]	TGI [6]	TGI [7]	TGI [8]	GI50 [6]	GI50 [7]	GI50 [8]	GI50 [5]
Nc1ncc(-c2ccc3ncnc(Nc4cccc(Cl)c4)c3c2)cn1	0.538 µM	0.452 µM	> 100 µM	1.48 µM	> 100 µM	0.217 µM and 1.57 µM	> 100 µM	–	–	–	–	–	–	–	–	–
O=C1c2ccccc2-c2c3c(cc4ccnc1c24)OCO3	–	–	23.9 µM and 14.8 µM	–	–	–	68.3 µM and > 100 µM	35.1 µM and > 100 µM	60.1 µM	> 100 µM and 15 µM	58.4 µM and 15 µM	19.6 µM and 16.4 µM	–	–	–	–
c1ccc(SC(Sc2ccccc2)=C2CCC2)cc1	–	–	> 100 µM	–	–	–	> 100 µM	> 100 µM	–	> 100 µM	> 100 µM	> 100 µM	–	–	–	–
CN(C)c1ccc(/C=c2\sc3nnc(-c4ccco4)n3c2=O)cc1	–	–	> 100 µM	–	–	–	–	> 100 µM	> 100 µM	> 100 µM	> 100 µM	> 100 µM	–	–	–	–
CCN(CC)CCN(CC)CC.CCN(CC)CCN(CC)CC.[Cu+2].[Cu+2].[O-][Cl+3]([O-])([O-])[O-].[OH3+].[OH3+]	17.2 µM	> 100 µM	> 100 µM	–	–	–	–	32.1 µM	–	> 100 µM	45.7 µM	37.6 µM	53.1 µM	14.4 µM	15.5 µM	–
CCC[CH2][Sn](=[O])[CH2]CCC	> 50 µM	> 50 µM	> 50 µM	–	–	> 50 µM	> 50 µM	> 50 µM	> 50 µM	> 50 µM	> 50 µM	> 50 µM	> 50 µM	> 50 µM	> 50 µM	> 50 µM
Cc1cccc(-c2nnc3s/c(=C\c4ccc(N(C)C)cc4)c(=O)n23)c1	–	–	> 100 µM	–	–	–	–	> 100 µM	> 100 µM	> 100 µM	> 100 µM	> 100 µM	–	–	–	–
Cc1ccc(/C=C/C(=O)c2ccc(Cl)c(Cl)c2)cc1	–	–	> 100 µM	–	–	–	–	> 100 µM	> 100 µM	> 100 µM	> 100 µM	> 100 µM	–	–	–	–
CC(Oc1ccc2c(-c3ccc(Cl)cc3)cc(=O)oc2c1)C(=O)O (stereo unspecified)	–	–	> 100 µM	–	–	–	–	> 100 µM	> 100 µM	> 100 µM	> 100 µM	> 100 µM	–	–	–	–
O=[N+]([O-])c1nccn1CC(O)c1ccccc1 (stereo unspecified)	–	–	> 100 µM	–	–	–	> 100 µM	> 100 µM	–	> 100 µM	> 100 µM	> 100 µM	–	–	–	–
COc1ccc(/C=C/c2cc(OC)c(OC(C)=O)c(OC)c2)cc1	–	–	49.3 µM	–	–	–	80.6 µM	38.4 µM	39 µM	–	–	60.4 µM	–	–	–	–
CSC(=NC(=O)c1ccccc1Cl)SCCSC(=NC(=O)c1ccccc1Cl)SC	–	–	> 100 µM	–	–	–	> 100 µM	> 100 µM	> 100 µM	> 100 µM	> 100 µM	> 100 µM	–	–	–	–
CCOC(=O)C12CCCC1(O)N(NC(=O)OC)C(C)=C2C(=O)OC (stereo unspecified)	–	–	> 100 µM	–	–	–	> 100 µM	> 100 µM	> 100 µM	> 100 µM	> 100 µM	> 100 µM	–	–	–	–
O=C(C[n+]1ccccc1)N/N=C(/CCC(=O)N(Cc1ccccc1)Cc1ccccc1)CC(=O)c1ccccc1	–	–	> 100 µM	–	–	–	> 100 µM	> 100 µM	> 100 µM	> 100 µM	> 100 µM	> 100 µM	–	–	–	–
CSC(=O)C[C@@]12O[C@@H]([C@@H](C)C3CCC4[C@@H]5C(O)CC6=CC(=O)C=C[C@]6(C)C5CC[C@@]43C)C[C@](C)(O1)C(C)(C)O2 (stereo partly specified)	–	–	24.8 µM	–	–	–	32 µM	25.2 µM	41.6 µM	19.9 µM	25.1 µM	35.8 µM	–	–	–	–
COc1ccc(CC(=O)NCCc2ccc(OC)c(OC)c2OC)cc1	–	–	> 100 µM	–	–	–	–	> 100 µM	> 100 µM	> 100 µM	–	> 100 µM	–	–	–	–
COC(=O)CCC(=O)Nc1ccc(Cl)cc1C	–	–	> 100 µM	–	–	–	> 100 µM	> 100 µM	> 100 µM	> 100 µM	> 100 µM	> 100 µM	–	–	–	–
COc1ccc(C(=O)C2CCC(C(=O)O)C2)cc1 (stereo unspecified)	–	–	> 100 µM	–	–	–	> 100 µM	> 100 µM	> 100 µM	> 100 µM	> 100 µM	> 100 µM	–	–	–	–
CC(=O)OC12C(C)=C(C)C(=O)N1c1ccccc1N2C(C)=O (stereo unspecified)	–	–	> 100 µM	–	–	–	> 100 µM	> 100 µM	> 100 µM	> 100 µM	> 100 µM	> 100 µM	–	–	–	–
CCCCCCCCCCCCSC(=S)c1c(C)[nH]n(-c2ccccc2)c1=O	–	–	38.9 µM	–	–	–	> 50 µM	> 50 µM	21.5 µM	> 50 µM	> 50 µM	–	–	–	–	–
Nc1nc(=O)n(C2CCC(CO)O2)cc1F (stereo unspecified)	–	–	> 100 µM	–	–	–	> 100 µM	> 100 µM	> 100 µM	> 100 µM	> 100 µM	> 100 µM	–	–	–	–
CC(C)(C)C(=O)N1C(C(=O)O)Cc2ccccc2[C@@H]1Cc1ccccc1 (stereo partly specified)	–	–	–	–	–	–	> 100 µM	> 100 µM	> 100 µM	> 100 µM	–	> 100 µM	–	–	–	–
